# Where “and” joins values, the source holds several entries; their conditions need not be identical. Equal values may be shown once.
# Experiments:
# [1] = test system: P. vulgaris; assay: Agarose dilution assay (MIC); assay type: cell-based
# [2] = test system: P388, lymphocytic leukemia; assay: Cell death by Cytotox (Promega) lactate dehydrogenase release; assay type: cell-based; settings: LDH release
# Experimental: (§1) In addition, APO-peptides and parent peptides are tested against a panel of cancer cell lines. Cell death is measured using the Cytotox (Promega) assay kit which measures the release of lactate dehydrogenase.
# (§2) PBL, peripheral blood lymphocytes; HUVEC, human umbilical vein endothelial cells; H460,non-small lung tumor; K562, chronic myelogenous leukemia; DoHH-2, B-cell cell lymphoma; P388, lymphocytic leukemia; P388ADR, lymphocytic leukemia, multidrug resistant; MCF-7, breast carcinoma; MCF-7ADR, breast carcinoma, multidrug resistant.
# [3] = test system: HUVEC, human umbilical vein endothelial cells; assay: as above; assay type: cell-based; settings: LDH release
# Experimental: as §1, §2
# [4] = test system: H460, non-small lung tumor; assay: as above; assay type: cell-based; settings: LDH release
# Experimental: as §1, §2
# [5] = test system: P388ADR, lymphocytic leukemia, multidrug resistant; assay: as above; assay type: cell-based; settings: LDH release
# Experimental: as §1, §2
# [6] = test system: MCF-7ADR, breast carcinoma, multidrug resistant; assay: as above; assay type: cell-based; settings: LDH release
# Experimental: as §1, §2
# [7] = test system: PBL, peripheral blood lymphocytes; assay: as above; assay type: cell-based; settings: LDH release
# Experimental: as §1, §2
# [8] = test system: MCF-7, breast carcinoma; assay: as above; assay type: cell-based; settings: LDH release
# Experimental: as §1, §2
# [9] = test system: E. coli strain ML-35 inner membrane; assay type: cell-based
# [10] = test system: S. epidermidis (ATCC # 12228); assay: In vivo efficacy, S. epidermidis infection; settings: iv
# [11] = test system: P. mirabilis; assay: Agarose dilution assay (MIC); assay type: cell-based
# [12] = Liposome dye release; settings: egg PC liposomes
# Experimental: In this example, a dye pair consisting of the fluorescent molecule 8-aminonapthalene-1,3,6-trisulfonic acid (ANTS) and its quencher molecule p-xylene-bis-pyridinium bromide (DPX) are used. The mixture of free dye molecules, dye free liposomes, and liposomes containing encapsulated ANTS-DPX are separated by size exclusion chromatography. In the assay, the test peptide is incubated with the ANTS-DPX containing liposomes and the fluorescence due to ANTS release to the outside of the liposome is measured over time.
# Using this assay, peptide activity, measured by dye release, is shown to be extremely sensitive to the composition of the liposomes at many liposome to peptide ratios (L/P) (FIG. 7). […] This […] selectivity may mimic that observed […] for bacterial cells in the presence of mammalian cells.
# ANTS/DPX can be replaced with fluorescein isothiocyanate-labeled dextran (FD-4), molecular weight 4,400, in the egg PC liposomes.
# [13] = test system: Candida; assay: Agarose dilution assay (MIC) against Candida; assay type: cell-based
# [14] = test system: DoHH-2, B-cell cell lymphoma; assay: Cell death by Cytotox (Promega) lactate dehydrogenase release; assay type: cell-based; settings: LDH release
# Experimental: as §1, §2
# [15] = test system: K562, chronic myelogenous leukemia; assay: as above; assay type: cell-based; settings: LDH release
# Experimental: as §1, §2
# [16] = test system: S. pyogenes; assay: Agarose dilution assay (MIC); assay type: cell-based; settings: S. pyogenes strain SPY006
# [17] = test system: S. aureus; assay: microbe, parasite or virus in culture; assay type: cell-based
# [18] = test system: a bacterial strain; assay: Killing curves, combination of cationic peptide and antibiotic agent; assay type: cell-based; settings: in combination with vancomycin, FIG. 3E
# Experimental: As used herein, “synergy” refers to the in vitro effect of administration of a combination of a cationic peptide and antibiotic agent such that (I) the fractional inhibitory concentration (FIC) is less than or equal to 0.5 in an FIC assay described herein; or (2) there is at least a 100-fold (21og10) increase in killing at 24 hours for the combination as compared with the antibiotic agent alone in a time kill curve assay as described herein.
# Time kill curves resulting from combination of cationic peptide and antibiotic agent are compared to that resulting from agent alone.
# The assay is performed as described above except that duplicate tubes are set up for each concentration of the antibiotic agent alone and of the combination of antibiotic agent and cationic peptide.
# [19] = test system: tolerant organisms; assay: Overcoming tolerance: MBC and MIC by agarose dilution, antibiotic alone and with peptide; assay type: cell-based; settings: combination of Vancomycin and peptide, organisms of Table 18
sequence,measurement,setting,value
ILKKFPFFPFRRK [MBI 11A1CN],MIC,[1]; P. vulgaris SBPV1,>128 µg/mL
same,Peptide MIC values,"[1]; agarose dilution, P. vulgaris ATCC 13315",>128 µg/mL
ILKKWPWWPWRRK [MBI 11CN],"LC50 ± S.E., P388",[2],30 µg/mL
same,"LC50 ± S.E., HUVEC",[3],>190 µg/mL
same,"LC50 ± S.E., H460",[4],200 µg/mL
same,"LC50 ± S.E., P388 ADR",[5],25 µg/mL
same,"LC50 ± S.E., MCF-7 ADR",[6],17 ± 1 µg/mL
same,"LC50 ± S.E., PBL",[7],57 µg/mL
same,"LC50 ± S.E., MCF-7",[8],11.8 ± 9 µg/mL
same,ONPG hydrolysis diminished compared to no pre-incubation,[9]; cells pre-incubated with valinomycin,approximately 50%
same,efficacy,[10]; 30 minutes post-infection,less activity
same,efficacy,[10]; 60 minutes post-infection,no significant effect
same,survival of the mice,[10]; formulation D,prolongs the survival of the mice
same,efficacy,[10]; treatment 15 minutes post-infection,Efficacy is observed at all three dose levels
same,MIC,[11]; P. mirabilis PM002,>128 µg/mL
same,"FD-4 (MW 4,400) release",[12],No increase in FD-4 fluorescence
same,MIC,[13]; C. albicans CA001,128 µg/mL
same,MIC,[13]; C. albicans CA002,64 µg/mL
same,MIC,[13]; C. albicans CA003,128 µg/mL
same,MIC,[13]; C. albicans CA004,64 µg/mL
same,MIC,[13]; C. albicans CA005,128 µg/mL
same,MIC,[13]; C. albicans CA006,128 µg/mL
same,MIC,[13]; C. albicans CA007,128 µg/mL
same,MIC,[13]; C. albicans CA008,64 µg/mL
same,MIC,[13]; C. albicans CA009,64 µg/mL
same,MIC,[13]; C. albicans CA010,128 µg/mL
same,MIC,[13]; C. albicans CA011,64 µg/mL
same,MIC,[13]; C. albicans CA012,128 µg/mL
same,MIC,[13]; C. albicans CA013,128 µg/mL
same,MIC,[13]; C. albicans CA014,64 µg/mL
same,MIC,[13]; C. albicans CA015,128 µg/mL
same,MIC,[13]; C. albicans CA016,128 µg/mL
same,MIC,[13]; C. albicans CA017,128 µg/mL
same,MIC,[13]; C. albicans CA018,128 µg/mL
same,MIC,[13]; C. albicans CA019,128 µg/mL
same,MIC,[13]; C. albicans CA020,128 µg/mL
same,MIC,[13]; C. albicans CA021,128 µg/mL
same,MIC,[13]; C. albicans CA022,32 µg/mL
same,MIC,[13]; C. albicans CA023,128 µg/mL
same,MIC,[13]; C. albicans CA024,16 µg/mL
same,MIC,[13]; C. glabrata CGL001,>128 µg/mL
same,MIC,[13]; C. glabrata CGL002,>128 µg/mL
same,MIC,[13]; C. glabrata CGL003,>128 µg/mL
same,MIC,[13]; C. glabrata CGL004,>128 µg/mL
same,MIC,[13]; C. glabrata CGL005,>128 µg/mL
same,MIC,[13]; C. glabrata CGL009,>128 µg/mL
same,MIC,[13]; C. glabrata CGL010,>128 µg/mL
same,MIC,[13]; C. krusei CKR001,0.5 µg/mL
same,MIC,[13]; C. tropicalis CTR001,4 µg/mL
same,MIC,[13]; C. tropicalis CTR002,4 µg/mL
same,MIC,[13]; C. tropicalis CTR003,8 µg/mL
same,MIC,[13]; C. tropicalis CTR004,4 µg/mL
same,MIC,[13]; C. tropicalis CTR005,4 µg/mL
same,MIC,[13]; C. tropicalis CTR006,16 µg/mL
same,MIC,[13]; C. tropicalis CTR007,16 µg/mL
same,MIC,[13]; C. tropicalis CTR008,8 µg/mL
same,MIC,[13]; C. tropicalis CTR009,8 µg/mL
ILRWPWWPWRRK [MBI 11B7CN],"LC50 ± S.E., P388",[2],13.8 µg/mL
same,"LC50 ± S.E., HUVEC",[3],90 ± 23 µg/mL
same,"LC50 ± S.E., H460",[4],26 ± 25 µg/mL
same,"LC50 ± S.E., DoHH-2",[14],16.5 ± 3 µg/mL
same,"LC50 ± S.E., PBL",[7],24 ± 10 µg/mL
same,"LC50 ± S.E., MCF-7",[8],>700 µg/mL
same,"LC50 ± S.E., K562",[15],34 ± 25 µg/mL
same,time of maximum activity in growth cycle,[9],140 min and 230 min
same,MIC,[11]; P. mirabilis strain PM002,>128 µg/mL
same,MIC,[16],16 µg/mL
same,MIC,[13]; C. albicans CA001,64 µg/mL
same,MIC,[13]; C. albicans CA002,32 µg/mL
same,MIC,[13]; C. albicans CA003,64 µg/mL
same,MIC,[13]; C. albicans CA004,32 µg/mL
same,MIC,[13]; C. albicans CA005,32 µg/mL
same,MIC,[13]; C. albicans CA006,64 µg/mL
same,MIC,[13]; C. albicans CA007,64 µg/mL
same,MIC,[13]; C. albicans CA008,32 µg/mL
same,MIC,[13]; C. albicans CA009,32 µg/mL
same,MIC,[13]; C. albicans CA010,64 µg/mL
same,MIC,[13]; C. albicans CA011,64 µg/mL
same,MIC,[13]; C. albicans CA012,64 µg/mL
same,MIC,[13]; C. albicans CA013,64 µg/mL
same,MIC,[13]; C. albicans CA014,32 µg/mL
same,MIC,[13]; C. albicans CA015,64 µg/mL
same,MIC,[13]; C. albicans CA016,64 µg/mL
same,MIC,[13]; C. albicans CA017,64 µg/mL
same,MIC,[13]; C. albicans CA018,64 µg/mL
same,MIC,[13]; C. albicans CA019,64 µg/mL
same,MIC,[13]; C. albicans CA020,32 µg/mL
same,MIC,[13]; C. albicans CA021,32 µg/mL
same,MIC,[13]; C. albicans CA022,32 µg/mL
same,MIC,[13]; C. albicans CA023,64 µg/mL
same,MIC,[13]; C. albicans CA024,8 µg/mL
same,MIC,[13]; C. glabrata CGL001,128 µg/mL
same,MIC,[13]; C. glabrata CGL002,128 µg/mL
same,MIC,[13]; C. glabrata CGL003,128 µg/mL
same,MIC,[13]; C. glabrata CGL004,128 µg/mL
same,MIC,[13]; C. glabrata CGL005,128 µg/mL
same,MIC,[13]; C. glabrata CGL009,128 µg/mL
same,MIC,[13]; C. glabrata CGL010,128 µg/mL
same,MIC,[13]; C. krusei CKR001,1 µg/mL
same,MIC,[13]; C. tropicalis CTR001,4 µg/mL
same,MIC,[13]; C. tropicalis CTR002,8 µg/mL
same,MIC,[13]; C. tropicalis CTR003,8 µg/mL
same,MIC,[13]; C. tropicalis CTR004,8 µg/mL
same,MIC,[13]; C. tropicalis CTR005,4 µg/mL
same,MIC,[13]; C. tropicalis CTR006,8 µg/mL
same,MIC,[13]; C. tropicalis CTR007,8 µg/mL
same,MIC,[13]; C. tropicalis CTR008,4 µg/mL
same,MIC,[13]; C. tropicalis CTR009,4 µg/mL
KKWWRRALQGLKTAGPAIQSVLNK [MBI 21A2],Ciprofloxacin MIC + Peptide,[17]; S. aureus SA25,1 µg/mL
same,Peptide MIC + Ciprofloxacin,[17]; S. aureus SA25,1 µg/mL
same,Peptide MIC Alone,"[17]; S. aureus SA25, Ciprofloxacin section",16 µg/mL
same,acquired resistance of S. aureus to piperacillin and ciprofloxacin,[17]; antibiotic agents combined with peptide,overcome
same,FIC,"[17]; peptide + Ciprofloxacin, S. aureus SA25",0.56
KWKSFIKKLTSAAKKVVTTAKPLISS [MBI 26],killing by combination compared with peptide or antibiotic agent alone,[18],greater killing than either peptide or antibiotic agent alone
same,tolerance (MBC:MIC) to Vancomycin,[19],overcomes the tolerance
